{"source": "patent US20040014779A1", "about": "“Methods and compositions related to IRM compounds and toll-like recptor pathways” (3M Innovative Properties Company, priority 2001, published 2004)", "key": {"[1]": {"biological_target": "T1, TLR6 (Mus musculus, UniProt Q9EPW9)", "T1 construct": "expressed in transfected cells; host or cells: RAW 264.7 (pIRES vector)", "T1 sequence (Q9EPW9 28-795)": "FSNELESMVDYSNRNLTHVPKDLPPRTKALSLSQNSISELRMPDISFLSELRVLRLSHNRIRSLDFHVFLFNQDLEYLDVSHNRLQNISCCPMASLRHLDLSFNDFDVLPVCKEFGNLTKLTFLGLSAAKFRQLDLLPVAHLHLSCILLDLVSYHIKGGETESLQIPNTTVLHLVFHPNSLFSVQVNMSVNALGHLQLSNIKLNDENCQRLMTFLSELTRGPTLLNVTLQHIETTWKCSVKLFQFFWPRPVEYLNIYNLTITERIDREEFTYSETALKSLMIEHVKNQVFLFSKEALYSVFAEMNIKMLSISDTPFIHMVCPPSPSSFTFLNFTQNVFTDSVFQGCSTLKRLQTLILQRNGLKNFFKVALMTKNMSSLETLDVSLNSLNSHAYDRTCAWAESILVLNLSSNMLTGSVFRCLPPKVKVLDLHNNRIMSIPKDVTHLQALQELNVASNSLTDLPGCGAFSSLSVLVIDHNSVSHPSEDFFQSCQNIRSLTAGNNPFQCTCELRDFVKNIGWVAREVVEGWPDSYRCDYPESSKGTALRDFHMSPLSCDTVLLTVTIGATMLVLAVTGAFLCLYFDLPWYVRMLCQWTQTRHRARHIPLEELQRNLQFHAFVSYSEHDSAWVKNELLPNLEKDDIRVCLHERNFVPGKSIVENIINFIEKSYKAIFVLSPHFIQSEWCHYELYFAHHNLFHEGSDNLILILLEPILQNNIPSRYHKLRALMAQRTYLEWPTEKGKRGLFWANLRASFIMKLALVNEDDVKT", "T1 sequence (Q9QUN7 25-784 partner)": "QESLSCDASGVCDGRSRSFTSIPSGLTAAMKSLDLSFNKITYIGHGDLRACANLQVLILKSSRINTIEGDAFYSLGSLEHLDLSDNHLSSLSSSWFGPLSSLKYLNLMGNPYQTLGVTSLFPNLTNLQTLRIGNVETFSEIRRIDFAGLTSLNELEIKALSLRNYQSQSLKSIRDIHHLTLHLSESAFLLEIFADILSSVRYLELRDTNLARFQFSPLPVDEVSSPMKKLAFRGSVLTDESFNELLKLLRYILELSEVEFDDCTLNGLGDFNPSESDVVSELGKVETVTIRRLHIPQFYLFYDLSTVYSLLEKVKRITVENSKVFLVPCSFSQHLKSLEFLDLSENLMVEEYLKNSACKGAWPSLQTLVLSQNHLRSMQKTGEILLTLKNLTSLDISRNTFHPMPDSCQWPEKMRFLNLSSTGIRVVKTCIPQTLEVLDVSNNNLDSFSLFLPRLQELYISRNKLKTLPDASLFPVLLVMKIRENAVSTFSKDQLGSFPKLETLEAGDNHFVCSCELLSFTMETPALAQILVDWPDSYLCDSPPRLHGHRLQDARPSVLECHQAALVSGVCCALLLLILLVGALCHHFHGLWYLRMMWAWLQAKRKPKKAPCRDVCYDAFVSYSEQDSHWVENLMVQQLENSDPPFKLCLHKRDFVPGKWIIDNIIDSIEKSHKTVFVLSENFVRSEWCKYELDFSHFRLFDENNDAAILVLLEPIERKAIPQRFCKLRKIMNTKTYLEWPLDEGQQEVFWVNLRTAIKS", "test": "IRM-stimulated TNF-α production by RAW 264.7 cells overexpressing TLR6", "assay_type": "cell-based, murine", "excerpt": "The murine TLR wild-type vectors were generated by PCR amplification from RAW 264.7 cell cDNA with TLR6 specific primers (sense primer: SEQ ID NO 13; antisense primer: SEQ ID NO 14) or TLR7 specific primers (sense primer: SEQ ID NO 15; antisense primer: SEQ ID NO 16) by Pfu Turbo DNA polymerase kit (Stratagene, La Jolla, Calif.). The PCR products were inserted into pCR-Blunt II-TOPO for sequence verification and then subcloned into pIRES (BD Biosciences Clontech, Palo Alto, Calif.) for expression in mammalian cells.\nTHP-1 cells or RAW 264.7 cells were cultured and transfected with the wild type TLR 6 or wild type TLR 7 plasmids described above. The transfections were performed as in Example 1 with a 4:1 ratio of wild-type TLR to H2K plasmid (THP-1 cells) or CD4 (RAW 264.7 cells).\nRAW 264.7 cells were stimulated with various concentrations of resiquimod and analyzed as described in Example 1. Results are provided in Table 4 and are expressed as fold increase in TNF-α production as compared to control transfected RAW 264.7 cells."}, "[2]": {"biological_target": "T2, TLR6 (Mus musculus, UniProt Q9EPW9, P680H)", "T2 construct": "expressed in transfected cells; host or cells: RAW 264.7 (pIRES vector)", "T2 sequence (Q9EPW9 28-795 P680H)": "as the sequence (Q9EPW9 28-795) above, with P653H counted along it", "T2 sequence (Q9QUN7 25-784 partner)": "as the sequence (Q9QUN7 25-784 partner) above", "test": "TNF-α production by RAW 264.7 cells transfected with TLR6DN", "assay_type": "cell-based", "excerpt": "A murine TLR6 dominant negative construct was generated by PCR mutation during amplification from RAW 264.7 cell cDNA. The 5′ and 3′ regions flanking a codon encoding proline 691 were amplified with primers (5′ sense: SEQ ID NO 1; 5′ antisense: SEQ ID NO 2; 3′sense: SEQ ID NO 3; 3′ antisense: SEQ ID NO 4) that changed the codon for proline 691 to a codon encoding histidine while introducing a unique Apa LI restriction enzyme site at the position of the mutation. The 5′ and 3′ sections of the TLR6 were amplified by Pfu Turbo DNA polymerase kit (Stratagene, La Jolla, Calif.). The PCR sections were inserted into pCR-Blunt II-TOPO for sequence verification. The two sections were joined together when subcloned into pIRES (Clontech, Palo Alto, Calif.) for expression in mammalian cells.\nRAW 264.7 cells were co-transfected with a truncated human CD4 for RAW 264.7 cells in a 4:1 ratio of TLR plasmid to CD4 plasmid. Transfection of RAW 264.7 cells was carried out using the transfection reagent DoTaP (Roche Diagnostics Corp., Indianapolis, Ind.) according to the manufacturer's specifications. […]\nTNF-α levels were measured with a commercial Human TNF-α ELISA kit (Biosource International, Inc., Camarillo, Calif.) according to the manufacturer's specifications. […]"}}}
{"smiles": "CCOCc1nc2c(N)nc3ccccc3c2n1CC(C)(C)O", "note": "[Resiquimod, 4-amino-2-ethoxymethyl-α,α-dimethyl-1H-imidazo[4,5-c]quinoline-1-ethanol]", "values": [{"measurement": "Fold increase in TNF-α production over control, TLR6", "setting": "[1]; RAW 264.7 overexpressing TLR6, 0.0004 μM", "value": 9.6, "unit": "fold"}, {"measurement": "Fold increase in TNF-α production over control, TLR6", "setting": "[1]; RAW 264.7 overexpressing TLR6, 0.001 μM", "value": 8.0, "unit": "fold"}, {"measurement": "Fold increase in TNF-α production over control, TLR6", "setting": "[1]; RAW 264.7 overexpressing TLR6, 0.004 μM", "value": 9.2, "unit": "fold"}, {"measurement": "Fold increase in TNF-α production over control, TLR6", "setting": "[1]; RAW 264.7 overexpressing TLR6, 0.012 μM", "value": 3.5, "unit": "fold"}, {"measurement": "Fold increase in TNF-α production over control, TLR6", "setting": "[1]; RAW 264.7 overexpressing TLR6, 0.037 μM", "value": 3.9, "unit": "fold"}, {"measurement": "Fold increase in TNF-α production over control, TLR6", "setting": "[1]; RAW 264.7 overexpressing TLR6, 1 μM", "value": 1.4, "unit": "fold"}, {"measurement": "Fold increase in TNF-α production over control, TLR6", "setting": "[1]; RAW 264.7 overexpressing TLR6, 3 μM", "value": 1.7, "unit": "fold"}, {"measurement": "Fold increase in TNF-α production over control, TLR6", "setting": "[1]; RAW 264.7 overexpressing TLR6, 10 μM", "value": 1.8, "unit": "fold"}, {"measurement": "TLR6 agonist character (in words)", "setting": "[1]; from TLR6 overexpression in RAW 264.7 cells", "value": "agonist"}, {"measurement": "Effect of TLR6DN on stimulus-induced TNF-α production (in words)", "setting": "[2]; compared with stimulation by LPS", "value": "inhibited to a much greater extent"}, {"measurement": "% inhibition of TNF-α production (TLR6DN)", "setting": "[2]; stimulus 3 μM", "value": 70.9, "unit": "%"}]}
